Reference: ChEMBL document CHEMBL3885881, “DrugMatrix”

Species: Rattus norvegicus
Test: DrugMatrix - Regimen: Daily Repeat
Assay type: toxicity, organism-based, Sprague-Dawley
Parameters: regimen Daily Repeat, gender Male, age 6-8 weeks
Details: in vivo, ip, 0.5 mg/kg, route intraperitoneal, dose level High, vehicle 100 % SALINE; for ALANINE AMINOTRANSFERASE / ALBUMIN / ALKALINE PHOSPHATASE / ASPARTATE AMINOTRANSFERASE / BLOOD UREA NITROGEN / CHLORIDE / CHOLESTEROL / CREATINE PHOSPHOKINASE / CREATININE / GLUCOSE / LACTATE DEHYDROGENASE / LIPASE / PHOSPHORUS / POTASSIUM / SODIUM / TOTAL BILIRUBIN / TOTAL PROTEIN / URIC ACID: tissue Plasma
[1] = 120 h, tissue Blood, time 5 day

Sequence: TRANSPLATIN
- ABSOLUTE BASOPHIL [1]: 86 cells/µL
- ABSOLUTE EOSINOPHIL [1]: 98 cells/µL
- ABSOLUTE LYMPHOCYTE [1]: 10800 cells/µL
- ABSOLUTE MONOCYTE [1]: 340 cells/µL
- ABSOLUTE SEGMENTED NEUTROPHIL [1]: 1910 cells/µL
- BASOPHIL [1]: 0.64%
- EOSINOPHIL [1]: 0.74%
- ERYTHROCYTE COUNT [1]: 7.41 x10E6/uL
- HEMATOCRIT [1]: 45.48%
- HEMOGLOBIN [1]: 14.92 G/DL
- LEUKOCYTE COUNT [1]: 13.36 x10E3/uL
- LYMPHOCYTE [1]: 80.42%
- MEAN CORPUSCULAR HEMOGLOBIN [1]: 20.12 pg
- MEAN CORPUSCULAR HEMOGLOBIN CONCENTRATION [1]: 32.8 G/DL
- MONOCYTE [1]: 2.5%
- NEUTROPHIL [1]: 14.94%
- PLATELET COUNT [1]: 1349 x10E3/uL
- ALANINE AMINOTRANSFERASE (120 h, time 5 day): 30.2 u/L
- ALBUMIN (120 h, time 5 day): 3.6 G/DL
- ALKALINE PHOSPHATASE (120 h, time 5 day): 229 u/L
- ASPARTATE AMINOTRANSFERASE (120 h, time 5 day): 82.8 u/L
- BLOOD UREA NITROGEN (120 h, time 5 day): 15 mg/dL
- CHLORIDE (120 h, time 5 day): 110 MEQ/L
- CHOLESTEROL (120 h, time 5 day): 67.2 mg/dL
- CREATINE PHOSPHOKINASE (120 h, time 5 day): 368.2 u/L
- CREATININE (120 h, time 5 day): 0.52 mg/dL
- GLUCOSE (120 h, time 5 day): 119 mg/dL
- LACTATE DEHYDROGENASE (120 h, time 5 day): 67.6 u/L
- LIPASE (120 h, time 5 day): 22.4 u/L
- PHOSPHORUS (120 h, time 5 day): 9.94 mg/dL
- POTASSIUM (120 h, time 5 day): 6.16 MEQ/L
- SODIUM (120 h, time 5 day): 151.8 MEQ/L
- TOTAL BILIRUBIN (120 h, time 5 day): 0.2 mg/dL
- TOTAL PROTEIN (120 h, time 5 day): 6.2 G/DL
- URIC ACID (120 h, time 5 day): 0.98 mg/dL
- ABSOLUTE BASOPHIL ([…], tissue Blood, time 14 day): 68 cells/µL
- ABSOLUTE EOSINOPHIL ([…], tissue Blood, time 14 day): 76 cells/µL
- ABSOLUTE LYMPHOCYTE ([…], tissue Blood, time 14 day): 6430 cells/µL
- ABSOLUTE MONOCYTE ([…], tissue Blood, time 14 day): 260 cells/µL
- ABSOLUTE SEGMENTED NEUTROPHIL ([…], tissue Blood, time 14 day): 2460 cells/µL
- BASOPHIL ([…], tissue Blood, time 14 day): 0.74%
- EOSINOPHIL ([…], tissue Blood, time 14 day): 0.84%
- ERYTHROCYTE COUNT ([…], tissue Blood, time 14 day): 7.71 x10E6/uL
- HEMATOCRIT ([…], tissue Blood, time 14 day): 46.84%
- HEMOGLOBIN ([…], tissue Blood, time 14 day): 15.04 G/DL
- LEUKOCYTE COUNT ([…], tissue Blood, time 14 day): 9.33 x10E3/uL
- LYMPHOCYTE ([…], tissue Blood, time 14 day): 69.2%
- MEAN CORPUSCULAR HEMOGLOBIN ([…], tissue Blood, time 14 day): 19.52 pg
- MEAN CORPUSCULAR HEMOGLOBIN CONCENTRATION ([…], tissue Blood, time 14 day): 32.1 G/DL
- MONOCYTE ([…], tissue Blood, time 14 day): 2.7%
- NEUTROPHIL ([…], tissue Blood, time 14 day): 26.14%
- PLATELET COUNT ([…], tissue Blood, time 14 day): 1318.6 x10E3/uL
- ABSOLUTE BASOPHIL ([…], tissue Blood, time 28 day): 120 cells/µL
- ABSOLUTE EOSINOPHIL ([…], tissue Blood, time 28 day): 130 cells/µL
- ABSOLUTE LYMPHOCYTE ([…], tissue Blood, time 28 day): 9640 cells/µL
- ABSOLUTE MONOCYTE ([…], tissue Blood, time 28 day): 190 cells/µL
- ABSOLUTE SEGMENTED NEUTROPHIL ([…], tissue Blood, time 28 day): 1790 cells/µL
- BASOPHIL ([…], tissue Blood, time 28 day): 1.07%
- EOSINOPHIL ([…], tissue Blood, time 28 day): 1.08%
- ERYTHROCYTE COUNT ([…], tissue Blood, time 28 day): 8.68 x10E6/uL
- HEMATOCRIT ([…], tissue Blood, time 28 day): 49.56%
- LEUKOCYTE COUNT ([…], tissue Blood, time 28 day): 11.93 x10E3/uL
- LYMPHOCYTE ([…], tissue Blood, time 28 day): 80.6%
- MEAN CORPUSCULAR HEMOGLOBIN ([…], tissue Blood, time 28 day): 18.81 pg
- MEAN CORPUSCULAR HEMOGLOBIN CONCENTRATION ([…], tissue Blood, time 28 day): 32.89 G/DL
- MEAN CORPUSCULAR VOLUME ([…], tissue Blood, time 28 day): 57.13 fL
- MONOCYTE ([…], tissue Blood, time 28 day): 1.64%
- NEUTROPHIL ([…], tissue Blood, time 28 day): 15.11%
- PLATELET COUNT ([…], tissue Blood, time 28 day): 1319.89 x10E3/uL
- ALANINE AMINOTRANSFERASE ([…], time 14 day): 24.6 u/L
- ALBUMIN ([…], time 14 day): 3.5 G/DL
- ALKALINE PHOSPHATASE ([…], time 14 day): 202 u/L
- ASPARTATE AMINOTRANSFERASE ([…], time 14 day): 78.6 u/L
- BLOOD UREA NITROGEN ([…], time 14 day): 12.6 mg/dL
- CHOLESTEROL ([…], time 14 day): 52.8 mg/dL
- CREATINE PHOSPHOKINASE ([…], time 14 day): 180.2 u/L
- CREATININE ([…], time 14 day): 0.58 mg/dL
- GLUCOSE ([…], time 14 day): 120.4 mg/dL
- LACTATE DEHYDROGENASE ([…], time 14 day): 80.8 u/L
- LIPASE ([…], time 14 day): 54.4 u/L
- POTASSIUM ([…], time 14 day): 5.82 MEQ/L
- SODIUM ([…], time 14 day): 150.8 MEQ/L
- TOTAL BILIRUBIN ([…], time 14 day): 0.3 mg/dL
- TOTAL PROTEIN ([…], time 14 day): 6.48 G/DL
- URIC ACID ([…], time 14 day): 0.98 mg/dL
- ALANINE AMINOTRANSFERASE ([…], time 28 day): 35.44 u/L
- ALBUMIN ([…], time 28 day): 3.69 G/DL
- ALKALINE PHOSPHATASE ([…], time 28 day): 151 u/L
- ASPARTATE AMINOTRANSFERASE ([…], time 28 day): 83 u/L
- BLOOD UREA NITROGEN ([…], time 28 day): 14 mg/dL
- CHLORIDE ([…], time 28 day): 108.89 MEQ/L
- CHOLESTEROL ([…], time 28 day): 61.44 mg/dL
- CREATINE PHOSPHOKINASE ([…], time 28 day): 144.22 u/L
- CREATININE ([…], time 28 day): 0.58 mg/dL
- GLUCOSE ([…], time 28 day): 132.22 mg/dL
- LACTATE DEHYDROGENASE ([…], time 28 day): 67.22 u/L
- LIPASE ([…], time 28 day): 45.22 u/L
- PHOSPHORUS ([…], time 28 day): 9.38 mg/dL
- SODIUM ([…], time 28 day): 151.78 MEQ/L
- TOTAL BILIRUBIN ([…], time 28 day): 0.2 mg/dL
- TOTAL PROTEIN ([…], time 28 day): 6.82 G/DL
- URIC ACID ([…], time 28 day): 1.21 mg/dL
